Key:
[1] = Release of cyclodextrin and drug from paper disk dosage forms in vivo (kept under the tongue, residue extracted); settings: for Progesterone left in disk, % of the originally present progesterone: progesterone:HPBCD paper disk, non-released disk = 100%
Method: Paper disks of 2 cm diameter containing only HPBCD were kept under the tongue for 3 to 4 minutes and dried after retrieval. The disks were then extracted by water (50 ml) overnight and soluble carbohydrates in the extracts measured using anthrone reagent (Methods in Carbohydrate Chemistry, Volume 1, page 523, wavelength used 620 nm). HPBCD is reactive toward this reagent. The control paper disk with HPBCD, but not released under the tongue, registered 100 units (arbitrary scale); the empty paper disk registered 1.8 units; disks loaded with HPBCD and released for 3 to 4 minutes under the tongue, 1.6 units.
Paper disks carrying progesterone:HPBCD combination, prepared as in Example 2 were kept under the tongue and, after retrieval, dried and extracted by water (50 ml) overnight. Progesterone in the extracts was measured by spectrophotometry using methods and precautions as in Example 2. When progesterone extracted from the original disks (i.e., not released under tongue) is taken as 100%, disks which were released for 5 minutes under the tongue yielded 3.8% of the originally present progesterone, and disks released for 10 minutes, 3.2%. Several minutes under the tongue thus releases nearly all drug into the oral cavity.

[2] = Release of drugs from paper disk dosage forms in vitro (continuous elution by water, spectrophotometry); format: physicochemical; settings: first milliliters of eluent
Method: To prepare the dosage form, cyclodextrin was dissolved in water (50% solutions for HPBCD, 20% for gamma-cyclodextrin and sulfopropyl beta-cyclodextrin), or aqueous ethanol for HPBCD (50% solution). This solution was saturated with drug by intensive stirring for two hours. The suspension was then filtered and then spotted on paper or filtration cloth and air dried.
Paper disks of 2 cm diameter and carrying drug: cyclodextrin inclusion complexes in the amounts specified in Table 1 below were continuously eluted by water and the amount of drug eluted was measured by spectrophotometry. For progesterone, a wavelength of 240 nm was used. Data had to be corrected since paper contains a minor component which elutes rapidly and absorbs at this wavelength. Prewashing of paper removes this complication. Amphotericin B content was analyzed using wavelength 410 nm and data previously published (M. Kajtar et al., Biopolymers, 28, 1585-1596, 1989).

[3] = as above; format: physicochemical; settings: eluted disks dried and eluted by methanol (50 ml) overnight

In the case of `CC(O)COC[C@H]1O[C@@H]2O[C@H]3[C@H](O)[C@@H](O)[C@@H](O[C@H]4[C@H](O)[C@@H](O)[C@@H](O[C@H]5[C@H](O)[C@@H](O)[C@@H](O[C@H]6[C@H](O)[C@@H](O)[C@@H](O[C@H]7[C@H](O)[C@@H](O)[C@@H](O[C@H]8[C@H](O)[C@@H](O)[C@@H](O[C@H]1[C@H](O)[C@H]2O)O[C@@H]8COCC(C)O)O[C@@H]7COCC(C)O)O[C@@H]6COCC(C)O)O[C@@H]5COCC(C)O)O[C@@H]4COCC(C)O)O[C@@H]3COCC(C)O` (stereo partly drawn) [HPBCD, hydroxypropyl beta-cyclodextrin], the “Time for release of HPBCD into mouth” value ([1]; paper disk under the tongue) is reported as “completed within a few minutes”.
For `C[C@@H]1[C@H](O)[C@@H](C)/C=C/C=C/C=C/C=C/C=C/C=C/C=C/[C@H](O[C@@H]2O[C@H](C)[C@@H](O)[C@H](N)[C@@H]2O)C[C@@H]2O[C@](O)(C[C@@H](O)C[C@@H](O)[C@H](O)CC[C@@H](O)C[C@@H](O)CC(=O)O[C@H]1C)C[C@H](O)[C@H]2C(=O)O` [Amphotericin B], the “Completeness of release of drug by water from cyclodextrin paper disks” value [2] was “only partial” and the “Additional drug release from eluted, dried disks by methanol” value [3] was “further drug was release”.
With `CC(=O)[C@H]1CC[C@H]2[C@@H]3CCC4=CC(=O)CC[C@]4(C)[C@H]3CC[C@]12C` [Progesterone] the “Progesterone left in disk, % of the originally present progesterone” value ([1]; released 5 minutes under the tongue) was 3.8%, the “Progesterone left in disk, % of the originally present progesterone” value ([1]; released 10 minutes under the tongue) was 3.2% and the “Completeness of release of drug by water from cyclodextrin paper disks” value [2] was “complete”. For the same molecule, the “Additional drug release from eluted, dried disks by methanol” value [3] was “No additional release was observed”.

— patent US20040048831A1, “Verifiable absorption drug delivery form based on cyclodextrins” (priority 2002, published 2004)
